Test results reported in patent EP0331184A2, “Peptide equivalents of non-peptides and methods of design therefor” (THE BOARD OF TRUSTEES OF THE UNIVERSITY OF ALABAMA FOR ITS …, priority 1988, dated 1989).

Tested on: dog kidney Na⁺K⁺ATPase
Test: ³H-ouabain radioreceptor assay
Format: binding
Conditions: 10⁻⁴M concentrations
Method: The linked-enzyme, spectrophotometric assay measuring hydrolysis of ATP was performed as described in Example 1. The ³H-ouabain radioreceptor assay was performed in 0.5 ml of 50 mM Tris HCl (pH 7.4) containing 0.5 mM EDTA, 4 mM MgSO₄, 80 mM NaCl, 5mM ATP, 7.5 ug of dog kidney Na⁺K⁺ATPase (Sigma), 7.8 nCi of [21, 22-³H]-ouabain (specific activity = 15.6 Ci/mmol; Amersham), and 0.1% gelatin. Test samples were incubated for 2 hr at 37°C; ATP and ³H-ouabain were absent during the first hour but present during the second hour. The glycopeptide 1-39 used in these experiments was isolated to homogeneity as described in Fig. 6; eOLP refers to the partially purified, endogenous ouabain-like substance described in the text, and its amounts are expressed as ul of acetonitrile/TFA. Samples of these preparations, both in acetonitrile/0.1% trifluoroacetic acid, were evaporated under a stream of nitrogen gas and redissolved in 0.1% gelatin in preparation for assay. ³H-ouabain bound to Na⁺K⁺ATPase was recovered on Whatman GF/F glass microfiber filters using vacuum filtration. The filters had been soaked in 0.3% aqueous polyethylenimine for 2 hr immediately before filtration. The filters were added to scintillation fluid in vials and counted in a liquid scintillation spectrometer. […]

| Substance | displacing activity in the ³H-ouabain radioreceptor assay |
| --- | --- |
| lysine vasopressin | no displacing activity |
| oxytocin | no displacing activity |
